From ChEMBL document CHEMBL4400564, “Structure-activity relationship studies of Bz amide-containing α-GalCer derivatives as natural killer T cell modulators” (Bioorg Med Chem Lett, 2019)
Active and inactive are the calls of the source.

Experiments:
[1] = target: T1, Antigen-presenting glycoprotein CD1d1 (Mus musculus) (UniProt P11609); assay: Binding affinity to Ig-tagged mouse CD1d assessed as increase in IL-2 production in NKT hybridoma cells exposed to 24 hrs pre-treated compound/CD1d mixture and measured after 48 hrs by ELISA based APC free assay; type: cell-based
T1 sequence (whole entry): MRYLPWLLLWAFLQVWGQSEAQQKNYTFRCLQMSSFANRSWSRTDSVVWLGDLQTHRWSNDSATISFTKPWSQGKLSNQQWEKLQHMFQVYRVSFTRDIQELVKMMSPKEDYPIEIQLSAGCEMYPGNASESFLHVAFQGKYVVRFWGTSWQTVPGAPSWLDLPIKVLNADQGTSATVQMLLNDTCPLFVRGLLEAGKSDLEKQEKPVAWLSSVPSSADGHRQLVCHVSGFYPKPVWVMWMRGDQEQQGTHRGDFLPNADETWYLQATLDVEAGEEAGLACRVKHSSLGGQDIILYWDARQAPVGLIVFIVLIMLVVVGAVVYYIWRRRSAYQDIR

Splenocyte [2] = assay: Reduction of IFN-gamma production in C57BL/6J mouse splenocyte at 1 to 100 nM after 48 hrs by ELISA relative to alpha-GalCer; type: functional, cell-based
Splenocyte [3] = assay: Induction of IL-4 production in C57BL/6J mouse splenocyte at 1 to 100 nM after 48 hrs by ELISA relative to alpha-GalCer; type: functional, cell-based

Measured: Activity

CCCCCCCCCCCCCC[C@@H](O)[C@@H](O)[C@H](CO[C@H]1O[C@H](CO)[C@H](O)[C@H](O)[C@H]1O)NC(=O)CCCCCCCCCCCNC(=O)c1ccccc1
active: [1] Dose-dependent effect | Splenocyte [2] | Splenocyte [3]

CCCCCCCCCCCCCC[C@@H](O)[C@@H](O)[C@H](CO[C@H]1O[C@H](CO)[C@H](O)[C@H](O)[C@H]1O)NC(=O)CCCCCCCCCCCNC(=O)C1CCCCC1
active: [1] Dose-dependent effect | Splenocyte [2] | Splenocyte [3]

CCCCCCCCCCCCCC[C@@H](O)[C@@H](O)[C@H](CO[C@H]1O[C@H](CO)[C@H](O)[C@H](O)[C@H]1O)NC(=O)CCCCCCCCCCCNC(=O)c1ccccc1OC
active: [1] Dose-dependent effect | Splenocyte [2] | Splenocyte [3]

CCCCCCCCCCCCCC[C@@H](O)[C@@H](O)[C@H](CO[C@H]1O[C@H](CO)[C@H](O)[C@H](O)[C@H]1O)NC(=O)CCCCCCCCCCCNC(=O)C(C)(C)C
active: [1] Dose-dependent effect | Splenocyte [2] | Splenocyte [3]

CCCCCCCCCCCCCC[C@@H](O)[C@@H](O)[C@H](CO[C@H]1O[C@H](CO)[C@H](O)[C@H](O)[C@H]1O)NC(=O)CCCCCCCCCCCNC(=O)c1cccc(OC)c1
active: [1] Dose-dependent effect | Splenocyte [2] | Splenocyte [3]

CCCCCCCCCCCCCC[C@@H](O)[C@@H](O)[C@H](CO[C@H]1O[C@H](CO)[C@H](O)[C@H](O)[C@H]1O)NC(=O)CCCCCCCCCCCNC(=O)C1CCNCC1
active: [1] Dose-dependent effect | Splenocyte [2] | Splenocyte [3]

CCCCCCCCCCCCCC[C@@H](O)[C@@H](O)[C@H](CO[C@H]1O[C@H](CO)[C@H](O)[C@H](O)[C@H]1O)NC(=O)CCCCCCCCCCCNC(=O)c1ccc(OC)cc1
active: [1] Dose-dependent effect | Splenocyte [2] | Splenocyte [3]

CCCCCCCCCCCCCC[C@@H](O)[C@@H](O)[C@H](CO[C@H]1O[C@H](CO)[C@H](O)[C@H](O)[C@H]1O)NC(=O)CCCCCCCCCCCNC(=O)c1ccc(F)cc1
active: [1] Dose-dependent effect | Splenocyte [2] | Splenocyte [3]

CCCCCCCCCCCCCC[C@@H](O)[C@@H](O)[C@H](CO[C@H]1O[C@H](CO)[C@H](O)[C@H](O)[C@H]1O)NC(=O)CCCCCCCCCCCNC(=O)c1cccc(F)c1
active: [1] Dose-dependent effect | Splenocyte [2] | Splenocyte [3]

CCCCCCCCCCCCCC[C@@H](O)[C@@H](O)[C@H](CO[C@H]1O[C@H](CO)[C@H](O)[C@H](O)[C@H]1O)NC(=O)CCCCCCCCCCCNC(=O)c1ccccc1F
active: [1] Dose-dependent effect | Splenocyte [2] | Splenocyte [3]
